Results published in patent publication US20260041620A1, “NOVEL AMINO ACID BASED SALTS, COMPOSITIONS AND METHODS FOR TREATING SKIN AND IMPROVING SKIN REJUVENATION AND LONGEVITY” (Sytheon Ltd, priority 2023, published 2026).
Marks after values point to notes of the source that are not given here.

Legend:
[1] = tested on: normal human adipose-derived mesenchymal stem cells (MSC); experiment: Reprograming of aged mesenchymal stem cells, gene expression by qPCR; format: cell-based; details: 10 ug/ml, 72 hours, starved MSC
From the text: MSCs are a multipotent type of stem cell that, directly or indirectly, have a significant impact on a number of physiological processes, including the proliferation and differentiation of epidermal cells and regeneration of the epidermal layer; however, as they age they show lower stemness and regenerative potential. MSCs are shown to enhance wound healing, to restore the barrier function of the skin, and to address skin aging, particularly aging due to sun exposure as well as natural senescence, including reducing the manifestation and/or degree of wrinkles. An evaluation was conducted to ascertain the effect, if any, of zinc di-(di-n-butyryl lysinate) (“ZDBL”) on MSCs. Specifically, normal human adipose-derived mesenchymal stem cells (MSC) (ATCC, Manassas, VA—PCS-500-011) were seeded in mesenchymal stem cell basal medium (ATCC, Manassas, VA—PCS500-030) supplemented with the MSC growth kit starvation media (ATCC, Manassas, VA—PCS500-040-811S) and cultured at 37° C. in a humidified 5% CO2 atmosphere using an VWR tissue culture incubator, Approximately 24 hours after a portion of the cells was placed in the starvation medium to generate stress, they were exposed to the ZDBL (10 ug/ml) and incubated for 72 hours: the remaining portion was not exposed to the ZDBL. RNA was then extracted for gene expression quantification by qPCR.

HDAC10 = target: T1, HDAC10 (Homo sapiens, UniProt Q969S8); details: reported, abcam; cited from earlier work
T1 sequence (Q969S8 1-669): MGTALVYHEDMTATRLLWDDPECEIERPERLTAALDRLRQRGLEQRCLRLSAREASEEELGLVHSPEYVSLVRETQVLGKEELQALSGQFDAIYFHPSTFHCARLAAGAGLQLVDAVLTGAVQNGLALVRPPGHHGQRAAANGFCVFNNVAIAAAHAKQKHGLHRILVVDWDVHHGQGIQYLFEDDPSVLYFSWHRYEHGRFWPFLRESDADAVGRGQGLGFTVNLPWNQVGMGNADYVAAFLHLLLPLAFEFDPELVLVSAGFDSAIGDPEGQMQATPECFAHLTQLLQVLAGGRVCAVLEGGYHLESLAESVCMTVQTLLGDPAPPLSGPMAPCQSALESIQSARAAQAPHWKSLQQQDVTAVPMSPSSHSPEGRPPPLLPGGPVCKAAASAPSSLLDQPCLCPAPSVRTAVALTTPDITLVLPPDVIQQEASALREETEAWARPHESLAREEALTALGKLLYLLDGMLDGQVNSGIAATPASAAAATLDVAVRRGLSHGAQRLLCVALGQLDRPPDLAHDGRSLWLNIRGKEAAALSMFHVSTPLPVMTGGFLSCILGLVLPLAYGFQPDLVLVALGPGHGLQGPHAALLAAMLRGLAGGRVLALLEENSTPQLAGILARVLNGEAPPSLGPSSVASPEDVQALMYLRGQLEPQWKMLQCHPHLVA

CCCC(=O)NCCCC[C@H](NC(=O)CCC)C(=O)[O-].CCCC(=O)NCCCC[C@H](NC(=O)CCC)C(=O)[O-].[Zn+2] [Zn di-(di-n-butyryl lysinate), Zinc di-(di-n-butyryl lysinate)]
BMP7 gene expression, Fold Change versus control [1]: 1.8* fold | DACT1 gene expression, Fold Change versus control [1]: 2.2** fold | DLK1 gene expression, Fold Change versus control [1]: 2.4** fold | DPP4 gene expression, Fold Change versus control [1]: −1.8** fold | OCT4 gene expression, Fold Change versus control [1]: 1.7** fold | SOX2 gene expression, Fold Change versus control [1]: 2.4* fold | SQSTM1/p62 gene expression, Fold Change versus control [1]: 1.7* fold | TP63 gene expression, Fold Change versus control [1]: 3.0** fold | WNT2 gene expression, Fold Change versus control [1]: 1.9** fold

CCCC(=O)[O-].[Na+] [Sodium butyrate, reference compound]
inhibition of HDAC10 (HDAC10): no inhibition
